Where “and” joins values, the source holds several entries; their conditions need not be identical. Equal values may be shown once.
Key:
[1] = system: A2780cis human ovarian carcinoma cell line; experiment: In vitro cytotoxicity, CellTiter96 AQueous One proliferation assay (Example 1); type: cell-based; conditions: A2780cis cells; sample added to cells; Example 1 particles
Method: In one set of in vitro cytotoxicity activity studies, the cisplatin-resistant A2780cis human ovarian carcinoma cell line was used. A2780cis human ovarian carcinoma cell line (Sigma, 93112517) was cultured according to supplier's descriptions. IC50 values (50% inhibitory concentration) were determined with the CellTiter96® AQueous One (Promega) colorimetric proliferation assay. The CellTiter96® AQueous One (Promega) colorimetric proliferation assay was used to determine the IC50 value (50% inhibitory concentration) evaluated from 12 two-fold dilutions of: (a) cisplatin (200 μg cisplatin /mL) in 0.9% saline (free active agent), (b) 1.5 mg of conjugates in 1.75 ml PBS, (c) 1.5 mg of hydroxyapatite in 1.75 ml of cisplatin solution. Control wells containing the hydroxyapatite only were used since the hydroxyapatite interferes with the CellTiter96 assay. Absorbance values from the hydroxyapatite only were subtracted from the conjugate data in order to determine the IC50 values. The cytotoxicity assay was conducted as follows: twenty-four hours after seeding 2000 A2780cis cells in […] of media on 96 well plates, […] PBS, or PBS with drug or conjugates was added to the wells.

ME-180 tumors = experiment: Chemoradiotherapy of intradermal ME-180 tumors in mice; type: in vivo, athymic Ncr-nu/nu mice; conditions: with single 8 Gy radiation; conjugate IT 10 mg/kg, cisplatin IP 7 mg/kg
Method: Chemoradiotherapy of ME-180 Tumors with intratumoral calcium phosphate particle/cisplatin conjugate was performed. Primary tumors were initiated on the right flank in seventy athymic Ncr-nu/nu mice, 5-7 weeks old, by intradermal injections of 2.25×10^6 ME-180 cells, a human cervical cancer line. Six treatment groups were established for the study and included an untreated control, 7 mg/kg intraperitoneal (IP) cisplatin, and intratumoral (IT) calcium phosphate particle/cisplatin conjugate at a dose of 10 mg/kg. These three treatment groups were repeated in combination with a single dose of radiation at 8 Gy (Varian 2100 C), for a total of six treatment groups. Mice were entered into treatment groups once the intradermal ME-180 tumors were 100 mm^3±10% in size. A minimum of 5 mice was placed into each group. The conjugate was injected via an 18-gauge needle directly into the intradermal tumor. Tumor length and width were measured daily and the volume determined (Tumor volume=(width)^2×length×0.4). Mouse weight was also recorded daily as weight loss is an indicator of cisplatin side effects. Statistical analysis, a one-way ANOVA and Newman-Kuels Comparison Test, was applied to the tumor volumes on day 15 after treatment.

[2] = Lymph node accumulation after footpad injection (Pt by graphite furnace AAS); type: in vivo, BALB/c mice; conditions: 20 μl footpad injection; nodes at 30 min, 1, 4, 7 days
Method: Lymph node accumulation studies were conducted using nine BALB/c mice, 5-7 weeks old injected with 20 μl of calcium phosphate particle/cisplatin conjugate (40 mg/ml) in both rear footpads. Six control mice received 20 μl footpad injections of cisplatin solution only. Draining lymph nodes, as determined by lymphazurin injections (popliteal, inguinal, and lumbar) were collected at 30 min, 1 day, 4 day and 7 days and analyzed for Pt content by graphite furnace atomic absorption spectroscopy. Use of calcium phosphate particle/cisplatin conjugate leads to sustained elevated levels of cisplatin in the draining nodes.

[3] = system: A2780cis human ovarian carcinoma cell line; experiment: In vitro cytotoxicity, CellTiter96 AQueous One proliferation assay (Example 2); type: cell-based; conditions: two days exposure, conjugate loading 112 μg/mg, listed as free active agent
Method: For in vitro cytotoxicity activity studies, the cisplatin-resistant cell line was used: A2780cis human ovarian carcinoma cell line (Sigma, 93112517) and cultured according to supplier's descriptions. Briefly, cells were cultured in RPMI1640 medium, supplemented with 2 mM Glutamine and 10% Fetal Bovine Serum (FBS) in a humid atmosphere at 37° C. and 5% CO2. Cells were supplemented with 1 μm cisplatin to the culture media every 2-3 passages, post-attachment. […] Three days were necessary to achieve a cisplatin concentration high enough to obtain an IC50 value. […] To confirm that the particle conjugates were diluted evenly across the wells, measurements of the total Pt concentration in all the wells of the active agent master plate were made by AAS after dissolving the conjugate solutions in dilute HCl. […] Absorbance values were converted to IC50 values using the four parameter logistic equation: Y=(Amax-Amin)/1+(x/IC50)^n+Amin Eq. 2 where Y=observed absorbance • Amax=absorbance of control cells • Amin=absorbance of cells in presence of highest agent concentration • x=active agent concentration (μg/ml) • n=slope of curve Samples were analyzed for statistically significant differences using the Student's T-test (P<0.05).

N.N.[Cl][Pt][Cl] [cisplatin]
IC50 (50% inhibitory concentration) [1]: 6.07 ± 0.226 µg/mL | tumors completely regressed (ME-180 tumors): ⅙ | duration of cisplatin levels in the draining popliteal node [2]: barely detected after one day | IC50, direct addition study [3]: 6.297 ± 0.43 µg/mL and 6.3 µg/mL
